In article PMC5218480 (PLoS ONE, 2017):

Tested on: MV-4-11 cells
Experiment: Gene expression microarray analysis (Affymetrix PrimeView) and GSEA
Type: cell-based, human
Design: RFU PODN (11730768_x_at) / Fold change /veh PODN (11730768_x_at) / RFU LINC00158 (11744669_a_at) / Fold change /veh LINC00158 (11744669_a_at) / RFU DUSP10 (11751237_a_at) / Fold change /veh DUSP10 (11751237_a_at) / RFU ID3 (11757404_x_at) / Fold change /veh ID3 (11757404_x_at) / RFU PLEKHG5 (11737974_s_at) / Fold change /veh PLEKHG5 (11737974_s_at) / RFU LRRC4B (11730491_at) / Fold change /veh LRRC4B (11730491_at) / RFU GIMAP4 (11747438_a_at) / Fold change /veh GIMAP4 (11747438_a_at) / RFU KRT8 (11758183_x_at) / Fold change /veh KRT8 (11758183_x_at) / RFU CNN1 (11734310_a_at) / Fold change /veh CNN1 (11734310_a_at) / RFU VPS37D (11726825_at) / Fold change /veh VPS37D (11726825_at) / RFU C10orf10 (11716522_x_at) / Fold change /veh C10orf10 (11716522_x_at) / RFU KIR2DL2 /// KIR2DL4 /// KIR2DL5A /// KIR2DL5B /// KIR2DS1 /// KIR2DS2 /// KIR2DS3 /// KIR2DS4 /// KIR3DL3 /// KIR3DL3 /// KIR3DS1 (11738374_at) / Fold change /veh KIR2DL2 /// KIR2DL4 /// KIR2DL5A /// KIR2DL5B /// KIR2DS1 /// KIR2DS2 /// KIR2DS3 /// KIR2DS4 /// KIR3DL3 /// KIR3DL3 /// KIR3DS1 (11738374_at) / RFU C1QL1 (11718748_at) / Fold change /veh C1QL1 (11718748_at) / RFU TMPRSS4 (11747572_a_at) / Fold change /veh TMPRSS4 (11747572_a_at) / RFU HAMP (11756126_x_at) / Fold change /veh HAMP (11756126_x_at) / RFU RNFT2 (11725882_a_at) / Fold change /veh RNFT2 (11725882_a_at) / RFU NR4A2 (11747474_a_at) / Fold change /veh NR4A2 (11747474_a_at) / RFU ABCC12 (11746883_a_at) / Fold change /veh ABCC12 (11746883_a_at) / RFU TMEM136 (11760407_x_at) / Fold change /veh TMEM136 (11760407_x_at) / RFU CLDN22 /// WWC2 (11732394_at) / Fold change /veh CLDN22 /// WWC2 (11732394_at) / RFU HLA-DPB1 (11760878_x_at) / Fold change /veh HLA-DPB1 (11760878_x_at) / RFU SPINT1 (11716480_a_at) / Fold change /veh SPINT1 (11716480_a_at) / RFU GAP43 (11754022_s_at) / Fold change /veh GAP43 (11754022_s_at) / RFU A4GNT (11735810_at) / Fold change /veh A4GNT (11735810_at) / RFU PRB3 (11715151_x_at) / Fold change /veh PRB3 (11715151_x_at) / RFU TUBB4B (11761932_at) / Fold change /veh TUBB4B (11761932_at) / RFU CAPN14 (11732068_a_at) / Fold change /veh CAPN14 (11732068_a_at) / RFU TMCC2 (11721928_a_at) / Fold change /veh TMCC2 (11721928_a_at) / RFU IRGQ (11745062_a_at) / Fold change /veh IRGQ (11745062_a_at) / RFU FAM174B (11720279_a_at) / Fold change /veh FAM174B (11720279_a_at) / RFU TMPRSS4 (11748680_a_at) / Fold change /veh TMPRSS4 (11748680_a_at) / RFU FAM212B (11763350_a_at) / Fold change /veh FAM212B (11763350_a_at) / RFU PLEKHG5 (11743358_a_at) / Fold change /veh PLEKHG5 (11743358_a_at) / RFU ZSCAN30 (11745921_a_at) / Fold change /veh ZSCAN30 (11745921_a_at) / RFU CMKLR1 (11741424_a_at) / Fold change /veh CMKLR1 (11741424_a_at) / RFU LOC101060620 /// MAPK8IP1 (11723275_at) / Fold change /veh LOC101060620 /// MAPK8IP1 (11723275_at) / RFU SPTSSB (11747773_x_at) / Fold change /veh SPTSSB (11747773_x_at) / RFU PRSS12 (11739890_at) / Fold change /veh PRSS12 (11739890_at) / RFU BIN1 (11741810_x_at) / Fold change /veh BIN1 (11741810_x_at) / RFU WNT11 (11732464_a_at) / Fold change /veh WNT11 (11732464_a_at) / RFU C10orf10 (11716521_a_at) / Fold change /veh C10orf10 (11716521_a_at) / RFU C5orf56 (11738089_at) / Fold change /veh C5orf56 (11738089_at) / RFU CYB561 (11721691_x_at) / Fold change /veh CYB561 (11721691_x_at) / RFU ANKRD19P (11752326_a_at) / Fold change /veh ANKRD19P (11752326_a_at) / RFU OR2T12 /// OR2T33 /// OR2T8 (11738714_s_at) / Fold change /veh OR2T12 /// OR2T33 /// OR2T8 (11738714_s_at) / RFU VCAN (11748164_a_at) / Fold change /veh VCAN (11748164_a_at) / RFU JSRP1 (11732532_at) / Fold change /veh JSRP1 (11732532_at) / RFU KRTAP10-11 (11738290_x_at) / Fold change /veh KRTAP10-11 (11738290_x_at) / RFU MYO3A (11730013_a_at) / Fold change /veh MYO3A (11730013_a_at) / RFU EBF3 (11725865_a_at) / Fold change /veh EBF3 (11725865_a_at) / RFU CAMK2N1 (11719241_x_at) / Fold change /veh CAMK2N1 (11719241_x_at) / RFU C5orf56 (11738088_a_at) / Fold change /veh C5orf56 (11738088_a_at) / RFU OLFML3 (11715873_a_at) / Fold change /veh OLFML3 (11715873_a_at) / RFU LOC100653217 /// NTM (11731650_a_at) / Fold change /veh LOC100653217 /// NTM (11731650_a_at) / RFU MAPK11 (11762145_a_at) / Fold change /veh MAPK11 (11762145_a_at) / RFU FIZ1 (11724087_x_at) / Fold change /veh FIZ1 (11724087_x_at) / RFU OASL (11726364_x_at) / Fold change /veh OASL (11726364_x_at) / RFU SOX15 (11748057_x_at) / Fold change /veh SOX15 (11748057_x_at) / RFU CD79A (11719716_a_at) / Fold change /veh CD79A (11719716_a_at) / RFU HIST1H1D (11736915_at) / Fold change /veh HIST1H1D (11736915_at) / RFU CASKIN2 (11723855_a_at) / Fold change /veh CASKIN2 (11723855_a_at) / RFU LOC730098 (11760151_x_at) / Fold change /veh LOC730098 (11760151_x_at) / RFU OR4N2 (11742367_at) / Fold change /veh OR4N2 (11742367_at) / RFU PRRT2 (11749266_a_at) / Fold change /veh PRRT2 (11749266_a_at) / RFU SNX32 (11753110_a_at) / Fold change /veh SNX32 (11753110_a_at) / RFU CDHR5 (11726645_a_at) / Fold change /veh CDHR5 (11726645_a_at) / RFU RCAN1 (11760418_a_at) / Fold change /veh RCAN1 (11760418_a_at) / RFU FAM167A (11723789_a_at) / Fold change /veh FAM167A (11723789_a_at) / RFU FAM26E (11764081_at) / Fold change /veh FAM26E (11764081_at) / RFU ISYNA1 (11749810_s_at) / Fold change /veh ISYNA1 (11749810_s_at) / RFU ACY1 (11761880_at) / Fold change /veh ACY1 (11761880_at) / RFU 11764098_at / Fold change /veh 11764098_at / RFU SAMD14 (11745864_x_at) / Fold change /veh SAMD14 (11745864_x_at) / RFU NPB (11741838_a_at) / Fold change /veh NPB (11741838_a_at) / RFU TMPRSS6 (11731388_a_at) / Fold change /veh TMPRSS6 (11731388_a_at) / RFU KRTAP10-2 (11738614_at) / Fold change /veh KRTAP10-2 (11738614_at) / RFU ARHGAP8 /// PRR5-ARHGAP8 (11727945_x_at) / Fold change /veh ARHGAP8 /// PRR5-ARHGAP8 (11727945_x_at) / RFU KRTAP5-7 /// NADSYN1 (11734609_at) / Fold change /veh KRTAP5-7 /// NADSYN1 (11734609_at) / RFU RASL12 (11751679_a_at) / Fold change /veh RASL12 (11751679_a_at) / RFU CDKN2B (11736163_a_at) / Fold change /veh CDKN2B (11736163_a_at) / RFU PRF1 (11729649_at) / Fold change /veh PRF1 (11729649_at) / RFU, ZNF638 /// ZNF638-IT1 / Fold change vs veh, ZNF638 /// ZNF638-IT1 / RFU, PANK3 / Fold change vs veh, PANK3 / RFU, SH3YL1 / Fold change vs veh, SH3YL1 / RFU, ZEB2 / Fold change vs veh, ZEB2 / RFU, NRIP1 / Fold change vs veh, NRIP1 / RFU, PTTG1IP / Fold change vs veh, PTTG1IP / RFU, CAPN2 / Fold change vs veh, CAPN2 / RFU, MED14 / Fold change vs veh, MED14 / RFU, SNORA58 / Fold change vs veh, SNORA58 / RFU, C1orf63 / Fold change vs veh, C1orf63 / RFU, LRRFIP1 / Fold change vs veh, LRRFIP1 / RFU, NDUFAF7 / Fold change vs veh, NDUFAF7 / RFU, SLC12A2 / Fold change vs veh, SLC12A2 / RFU, IBTK / Fold change vs veh, IBTK / RFU, ESF1 / Fold change vs veh, ESF1 / Fold change vs veh, TMEM50B / RFU, TAOK1 / Fold change vs veh, TAOK1 / RFU, ACBD3 / Fold change vs veh, ACBD3 / RFU, TMA16 / Fold change vs veh, TMA16 / RFU, RWDD3 / Fold change vs veh, RWDD3 / RFU, BCAT1 / Fold change vs veh, BCAT1 / RFU, EDEM3 / Fold change vs veh, EDEM3 / RFU, TMEM33 / Fold change vs veh, TMEM33 / RFU, WDR75 / Fold change vs veh, WDR75 / RFU, AHCTF1 / Fold change vs veh, AHCTF1 / RFU, TFRC / Fold change vs veh, TFRC / RFU, ZDHHC17 / Fold change vs veh, ZDHHC17 / RFU, NOM1 / Fold change vs veh, NOM1 / RFU, ARL8B / Fold change vs veh, ARL8B / RFU, ZBTB11 / Fold change vs veh, ZBTB11 / RFU, TAMM41 / Fold change vs veh, TAMM41 / RFU, KIAA1704 /// LOC100996395 / Fold change vs veh, KIAA1704 /// LOC100996395 / RFU, ING1 / Fold change vs veh, ING1 / RFU, TRMT61B / Fold change vs veh, TRMT61B / RFU, FUBP3 / Fold change vs veh, FUBP3 / RFU, TP53 / Fold change vs veh, TP53 / RFU, TNKS2 / Fold change vs veh, TNKS2 / RFU, ZFP14 / Fold change vs veh, ZFP14 / RFU, ACTR2 / Fold change vs veh, ACTR2 / RFU, PPP3R1 / Fold change vs veh, PPP3R1 / RFU, PIK3R1 / Fold change vs veh, PIK3R1 / RFU, HNRNPA1 / Fold change vs veh, HNRNPA1 / RFU, RNF170 / Fold change vs veh, RNF170 / RFU, ZNF28 / Fold change vs veh, ZNF28 / RFU, RNGTT / Fold change vs veh, RNGTT / RFU, OGT / Fold change vs veh, OGT / RFU, BRD1 / Fold change vs veh, BRD1 / RFU, MARS / Fold change vs veh, MARS / RFU, ZNF655 / Fold change vs veh, ZNF655 / RFU, FAHD1 / Fold change vs veh, FAHD1 / RFU, BDP1 / Fold change vs veh, BDP1 / RFU, LRRCC1 / Fold change vs veh, LRRCC1 / RFU, ARID1A / Fold change vs veh, ARID1A / RFU, ZNF146 / Fold change vs veh, ZNF146 / RFU, ZNF330 / Fold change vs veh, ZNF330 / RFU, GPN3 / Fold change vs veh, GPN3 / RFU, C9orf123 / Fold change vs veh, C9orf123 / RFU, N4BP2L2 / Fold change vs veh, N4BP2L2 / RFU, ARFIP1 / Fold change vs veh, ARFIP1 / RFU, FAM179B / Fold change vs veh, FAM179B / RFU, BCL10 / Fold change vs veh, BCL10 / RFU, UHRF1BP1L / Fold change vs veh, UHRF1BP1L / RFU, BET1 / Fold change vs veh, BET1 / RFU, CNOT2 / Fold change vs veh, CNOT2 / RFU, ZNF268 / Fold change vs veh, ZNF268 / Fold change vs veh, ZNF507 / RFU, DGCR2 / Fold change vs veh, DGCR2 / RFU, WDSUB1 / Fold change vs veh, WDSUB1 / Fold change vs veh, HSP90B1 /// MIR3652 / RFU, ADSS / Fold change vs veh, ADSS / RFU, GK / Fold change vs veh, GK / RFU, ZNF148 / Fold change vs veh, ZNF148 / RFU, TAF9 / Fold change vs veh, TAF9 / RFU, SLC1A5 / Fold change vs veh, SLC1A5 / RFU, SLMO2 / Fold change vs veh, SLMO2 / RFU, ABCC4 / Fold change vs veh, ABCC4 / RFU, LOC101060439 /// RAP1B / Fold change vs veh, LOC101060439 /// RAP1B / RFU, RFX7 / Fold change vs veh, RFX7 / RFU, GTPBP10 / Fold change vs veh, GTPBP10 / RFU, CNEP1R1 / Fold change vs veh, CNEP1R1 / RFU, BIVM-ERCC5 /// ERCC5 / Fold change vs veh, BIVM-ERCC5 /// ERCC5 / RFU, ILF3 / Fold change vs veh, ILF3 / RFU 11762660_at / Fold change /veh 11762660_at / RFU VCAN (11757783_s_at) / Fold change /veh VCAN (11757783_s_at) / RFU DDX43 (11728927_at) / Fold change /veh DDX43 (11728927_at) / RFU KRT8 (11758188_x_at) / Fold change /veh KRT8 (11758188_x_at) / RFU NKD1 (11759106_at) / Fold change /veh NKD1 (11759106_at) / RFU SRD5A1 (11742802_a_at) / Fold change /veh SRD5A1 (11742802_a_at) / RFU TPSAB1 /// TPSB2 (11721975_s_at) / Fold change /veh TPSAB1 /// TPSB2 (11721975_s_at) / RFU GSTM3 (11746129_a_at) / Fold change /veh GSTM3 (11746129_a_at) / RFU IL23R (11737362_x_at) / Fold change /veh IL23R (11737362_x_at) / RFU TMEM51 (11727254_a_at) / Fold change /veh TMEM51 (11727254_a_at) / RFU PIWIL2 (11732686_x_at) / Fold change /veh PIWIL2 (11732686_x_at) / RFU ORM1 (11744905_x_at) / Fold change /veh ORM1 (11744905_x_at) / RFU CCDC152 (11743942_at) / Fold change /veh CCDC152 (11743942_at) / RFU ECM1 (11717891_a_at) / Fold change /veh ECM1 (11717891_a_at) / RFU IL23R (11748794_a_at) / Fold change /veh IL23R (11748794_a_at) / RFU TNFAIP8L3 (11732012_x_at) / Fold change /veh TNFAIP8L3 (11732012_x_at) / RFU MBOAT4 (11741988_at) / Fold change /veh MBOAT4 (11741988_at) / RFU 11764193_at / Fold change /veh 11764193_at / RFU TMEM53 (11763286_at) / Fold change /veh TMEM53 (11763286_at) / RFU MAGEB2 (11727129_at) / Fold change /veh MAGEB2 (11727129_at) / RFU TMEM200A (11744735_a_at) / Fold change /veh TMEM200A (11744735_a_at) / RFU CCDC152 (11751479_a_at) / Fold change /veh CCDC152 (11751479_a_at) / RFU FAM211A (11726209_a_at) / Fold change /veh FAM211A (11726209_a_at) / RFU RGS16 (11746705_a_at) / Fold change /veh RGS16 (11746705_a_at) / RFU VCAN (11755009_s_at) / Fold change /veh VCAN (11755009_s_at) / RFU RHOB (11743442_s_at) / Fold change /veh RHOB (11743442_s_at) / RFU RGS16 (11720943_a_at) / Fold change /veh RGS16 (11720943_a_at) / RFU RGS16 (11720944_at) / Fold change /veh RGS16 (11720944_at) / RFU, VPS4B / Fold change vs veh, VPS4B / RFU, CREB1 / Fold change vs veh, CREB1 / RFU, DNAJC13 / Fold change vs veh, DNAJC13 / RFU, GNAQ / Fold change vs veh, GNAQ / RFU, CDK5R1 / Fold change vs veh, CDK5R1 / RFU, ZRANB3 / Fold change vs veh, ZRANB3 / RFU, CUL4A / Fold change vs veh, CUL4A / RFU, CCNY / Fold change vs veh, CCNY / RFU, UFL1 / Fold change vs veh, UFL1 / RFU, COG3 / Fold change vs veh, COG3 / RFU, DIAPH2 / Fold change vs veh, DIAPH2 / RFU, SKA2 / Fold change vs veh, SKA2 / RFU, AFF3 / Fold change vs veh, AFF3 / RFU, LMF1 / Fold change vs veh, LMF1 / RFU, IPO11 / Fold change vs veh, IPO11 / RFU, DFFB / Fold change vs veh, DFFB / RFU, FOXP1 / Fold change vs veh, FOXP1 / RFU, CARD8 / Fold change vs veh, CARD8 / RFU, STRN3 / Fold change vs veh, STRN3 / RFU, ADK / Fold change vs veh, ADK / RFU, RASSF2 / Fold change vs veh, RASSF2 / RFU, WIPF1 / Fold change vs veh, WIPF1 / RFU, LARP1B / Fold change vs veh, LARP1B / RFU, RASA1 / Fold change vs veh, RASA1 / RFU, RB1 / Fold change vs veh, RB1 / RFU, PPFIA1 / Fold change vs veh, PPFIA1 / RFU, MAT2A / Fold change vs veh, MAT2A / RFU, CCT5 / Fold change vs veh, CCT5 / RFU, WDR92 / Fold change vs veh, WDR92 / RFU, CUX1 / Fold change vs veh, CUX1 / RFU, TTC7A / Fold change vs veh, TTC7A / RFU, TMEM135 / Fold change vs veh, TMEM135 / RFU, DEPTOR / Fold change vs veh, DEPTOR / RFU, CPM / Fold change vs veh, CPM / RFU, DNAJB6 / Fold change vs veh, DNAJB6 / RFU, CACNA2D3 / Fold change vs veh, CACNA2D3 / RFU, DTX4 / Fold change vs veh, DTX4 / RFU, TFCP2 / Fold change vs veh, TFCP2 / RFU, GMCL1 /// GMCL1P1 / Fold change vs veh, GMCL1 /// GMCL1P1 / RFU, AEBP2 / Fold change vs veh, AEBP2 / RFU, SNHG1 /// SNORD22 /// SNORD25 /// SNORD26 /// SNORD27 /// SNORD28 /// SNORD29 /// SNORD31 / Fold change vs veh, SNHG1 /// SNORD22 /// SNORD25 /// SNORD26 /// SNORD27 /// SNORD28 /// SNORD29 /// SNORD31 / Fold change (Aza/veh), C12orf56 (ProbeSet 11735607_a_at) / Fold change (ACY-1035/veh), C12orf56 (ProbeSet 11735607_a_at) / Fold change (Aza/veh), FGFR1OP (ProbeSet 11751329_s_at) / Fold change (ACY-1035/veh), FGFR1OP (ProbeSet 11751329_s_at) / Fold change (Aza/veh), VPS36 (ProbeSet 11739960_a_at) / Fold change (ACY-1035/veh), VPS36 (ProbeSet 11739960_a_at) / RFU SYPL1 (11715823_x_at) / Fold change /veh SYPL1 (11715823_x_at) / RFU IGFBP7 (11715501_s_at) / Fold change /veh IGFBP7 (11715501_s_at) / RFU REEP3 (11722064_at) / Fold change /veh REEP3 (11722064_at) / RFU IGLL1 (11728026_x_at) / Fold change /veh IGLL1 (11728026_x_at): dose or concentration left out as unconfirmed
Conditions: ProbeSet 11719632_a_at; LIST B

## Nc1ncn([C@@H]2O[C@H](CO)[C@@H](O)[C@H]2O)c(=O)n1 [azacitidine]
  Fold change vs veh, ABCC4: 0.85
